Tests used:
BaF3 [1] = assay: Potency index, ratio of gefitinib IC50 to compound IC50 for gefitinib resistant mouse BA/F3 cells expressing EGFR L858R/T790M double mutant; assay type: functional
BaF3 [2] = assay: Antiproliferative activity against mouse BA/F3 cells expressing wild type EGFR after 72 hrs by MTS assay; assay type: cell-based; conditions: BaF3, 72 h
BaF3 [3] = assay: Antiproliferative activity against gefitinib resistant mouse BA/F3 cells expressing EGFR L858R/T790M double mutant after 72 hrs by MTS assay; assay type: functional, cell-based; conditions: BaF3, 72 h
BaF3 [4] = assay: Selectivity ratio of IC50 for gefitinib sensitive mouse BA/F3 cells expressing wild type EGFR to IC50 for gefitinib resistant mouse BA/F3 cells expressing EGFR L858R/T790M double mutant
NCI-H1975 [5] = assay: Antiproliferative activity against gefitinib resistant human NCI-H1975 cells expressing EGFR L858R/T790M double mutant after 72 hrs by MTS assay; assay type: functional, cell-based; conditions: NCI-H1975, 72 h
BaF3 [6] = assay: Antiproliferative activity against gefitinib sensitive mouse BA/F3 cells expressing EGFR exon 19 del E746_A750 activating mutant after 72 hrs by MTS assay; assay type: functional, cell-based; conditions: BaF3, 72 h
NCI-H1975 [7] = assay: Potency index, ratio of gefitinib IC50 to compound IC50 for gefitinib resistant human NCI-H1975 cells expressing EGFR L858R/T790M double mutant; assay type: functional
[8] = biological target: Epidermal growth factor receptor (Homo sapiens, UniProt P00533); assay: Binding affinity to wild type partial length human EGFR expressed in bacterial system by KINOMEscan assay
A-431 = assay: Antiproliferative activity against human A431 cells expressing wild type EGFR by MTS assay; assay type: cell-based
[9] = Selectivity ratio of IC50 for human A431 cells expressing wild type EGFR to IC50 for human NCI-H1975 cells expressing EGFR L858R/T790M double mutant
NCI-H1975 [10] = assay: Antiproliferative activity against human NCI-H1975 cells expressing EGFR L858R/T790M double mutant by MTS assay; assay type: functional, cell-based
Homo sapiens = species: Homo sapiens; assay: Selectivity ratio of Kd for wild type partial length human EGFR to Kd for partial length human EGFR L858R/T790M double mutant
[11] = biological target: Epidermal growth factor receptor (Homo sapiens, UniProt P00533, L858R/T790M); assay: Binding affinity to partial length human EGFR L858R/T790M double mutant expressed in mammalian system by KINOMEscan assay
NCI-H1975 [12] = assay: Antiproliferative activity against human NCI-H1975 cells expressing EGFR L858R/T790M double mutant assessed as decrease in cell viability after 48 hrs by WST assay; assay type: functional, cell-based; conditions: NCI-H1975, 48 h
PC-9 = assay: Antiproliferative activity against gefitinib resistant human PC9 cells expressing EGFR del E746_A750/T790M mutant after 72 hrs by MTS assay; assay type: functional, cell-based; conditions: PC-9, 72 h

Epidermal growth factor receptor (Homo sapiens, UniProt P00533), sequence (P00533 whole entry): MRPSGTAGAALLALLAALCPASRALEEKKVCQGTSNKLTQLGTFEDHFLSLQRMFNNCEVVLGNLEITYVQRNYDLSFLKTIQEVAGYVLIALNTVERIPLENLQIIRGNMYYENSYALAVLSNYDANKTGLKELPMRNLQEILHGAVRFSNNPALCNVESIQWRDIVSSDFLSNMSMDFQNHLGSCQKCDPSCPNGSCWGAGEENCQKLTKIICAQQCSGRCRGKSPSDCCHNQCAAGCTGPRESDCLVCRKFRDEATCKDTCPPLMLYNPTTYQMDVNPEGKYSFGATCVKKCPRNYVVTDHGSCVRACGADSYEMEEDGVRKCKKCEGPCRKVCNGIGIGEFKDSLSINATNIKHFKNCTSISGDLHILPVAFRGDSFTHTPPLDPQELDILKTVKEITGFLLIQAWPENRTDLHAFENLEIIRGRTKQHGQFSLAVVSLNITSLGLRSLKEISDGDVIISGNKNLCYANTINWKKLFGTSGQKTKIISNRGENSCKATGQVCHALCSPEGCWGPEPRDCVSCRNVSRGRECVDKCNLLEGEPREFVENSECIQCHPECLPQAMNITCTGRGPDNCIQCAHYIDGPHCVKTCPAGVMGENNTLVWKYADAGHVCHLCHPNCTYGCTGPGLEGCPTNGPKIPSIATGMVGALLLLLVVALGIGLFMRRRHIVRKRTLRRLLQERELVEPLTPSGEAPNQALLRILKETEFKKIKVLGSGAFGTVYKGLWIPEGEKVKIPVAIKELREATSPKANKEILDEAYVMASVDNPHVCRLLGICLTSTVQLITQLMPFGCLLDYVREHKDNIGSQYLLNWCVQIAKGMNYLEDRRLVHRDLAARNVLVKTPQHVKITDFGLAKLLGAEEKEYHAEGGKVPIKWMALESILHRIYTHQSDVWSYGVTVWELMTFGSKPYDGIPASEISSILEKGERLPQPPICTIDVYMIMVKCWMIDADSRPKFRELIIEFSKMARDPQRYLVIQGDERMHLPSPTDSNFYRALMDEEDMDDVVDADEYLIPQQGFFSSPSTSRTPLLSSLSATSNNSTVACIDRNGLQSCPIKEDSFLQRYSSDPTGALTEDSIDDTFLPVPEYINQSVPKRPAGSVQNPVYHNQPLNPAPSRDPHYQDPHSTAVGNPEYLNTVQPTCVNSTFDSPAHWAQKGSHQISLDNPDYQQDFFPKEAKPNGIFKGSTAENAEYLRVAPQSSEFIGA
Epidermal growth factor receptor (Homo sapiens, UniProt P00533, L858R/T790M), sequence (P00533 25-1210 T790M/L858R limits assumed): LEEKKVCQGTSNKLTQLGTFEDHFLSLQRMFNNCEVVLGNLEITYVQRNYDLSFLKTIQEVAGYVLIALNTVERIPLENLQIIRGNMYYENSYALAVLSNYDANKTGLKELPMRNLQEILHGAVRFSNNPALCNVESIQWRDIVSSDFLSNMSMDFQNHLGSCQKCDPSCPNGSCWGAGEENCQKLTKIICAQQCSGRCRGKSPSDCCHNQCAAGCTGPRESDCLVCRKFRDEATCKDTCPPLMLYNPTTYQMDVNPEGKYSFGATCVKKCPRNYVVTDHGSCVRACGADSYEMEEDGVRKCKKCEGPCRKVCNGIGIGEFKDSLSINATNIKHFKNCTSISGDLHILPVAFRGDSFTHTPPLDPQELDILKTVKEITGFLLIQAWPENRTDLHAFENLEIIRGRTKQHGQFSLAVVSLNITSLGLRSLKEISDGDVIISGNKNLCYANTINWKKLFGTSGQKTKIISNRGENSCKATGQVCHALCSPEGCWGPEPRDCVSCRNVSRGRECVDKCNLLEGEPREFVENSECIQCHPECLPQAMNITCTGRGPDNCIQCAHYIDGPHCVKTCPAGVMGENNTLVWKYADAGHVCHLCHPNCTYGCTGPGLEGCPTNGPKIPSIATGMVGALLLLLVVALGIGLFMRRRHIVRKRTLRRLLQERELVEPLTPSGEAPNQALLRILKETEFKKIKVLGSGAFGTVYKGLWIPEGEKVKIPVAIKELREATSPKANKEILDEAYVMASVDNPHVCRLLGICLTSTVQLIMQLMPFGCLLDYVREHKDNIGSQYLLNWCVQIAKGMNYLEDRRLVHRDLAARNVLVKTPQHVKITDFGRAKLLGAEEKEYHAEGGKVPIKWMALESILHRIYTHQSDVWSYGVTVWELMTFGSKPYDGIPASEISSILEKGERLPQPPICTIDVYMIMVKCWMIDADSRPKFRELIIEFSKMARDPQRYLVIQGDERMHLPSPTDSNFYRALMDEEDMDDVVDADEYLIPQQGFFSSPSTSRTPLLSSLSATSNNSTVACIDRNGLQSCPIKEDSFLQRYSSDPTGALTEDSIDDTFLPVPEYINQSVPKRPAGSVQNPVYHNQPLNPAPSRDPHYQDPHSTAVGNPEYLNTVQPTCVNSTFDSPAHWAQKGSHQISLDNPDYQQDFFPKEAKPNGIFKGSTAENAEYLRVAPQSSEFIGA

Row | SMILES | Ratio IC50 (BaF3 [1]) | IC50 (BaF3 [2]) | IC50 (BaF3 [3]) | Ratio IC50 (BaF3 [4]) | IC50 (NCI-H1975 [5]) | IC50 (BaF3 [6]) | Ratio IC50 (NCI-H1975 [7]) | Kd [8] | IC50 (A-431) | Ratio IC50 [9] | IC50 (NCI-H1975 [10]) | Selectivity ratio (Homo sapiens) | Kd [11] | IC50 (NCI-H1975 [12]) | IC50 (PC-9)
1 | C=CC(=O)Nc1cccc(Sc2nc(Nc3ccc(N4CCN(C)CC4)cc3)ncc2Cl)c1 | 30 - 100 | 32 nM | 9 nM | 4 | 9 nM | 2 nM | 30 - 100 | – | – | – | – | – | – | – | –
2 | C=CC(=O)Nc1cccc(-n2c3nc(Nc4ccc(N5CCN(NC)CC5)cc4OC)ncc3c(=O)n3ccnc23)c1 | – | – | – | – | – | – | – | 310 nM | 14500 nM | 169 | 86 nM | 119 | 2.6 nM | – | –
3 | C=CC(=O)Nc1cccc(-n2c3nc(Nc4ccc(N5CCN(C)CC5)cc4OC)ncc3c(=O)n3c4ccccc4nc23)c1 | – | – | – | – | – | – | – | 110 nM | 3570 nM | 12 | 307 nM | 100 | 1.1 nM | – | –
4 | C=CC(=O)Nc1cccc(-n2c3nc(Nc4ccc(N5CCN(C)CC5)cc4OCC)ncc3c(=O)n3ccnc23)c1 | – | – | – | – | – | – | – | 420 nM | 5250 nM | 13 | 396 nM | 136 | 3.1 nM | – | –
5 | CN(C)C/C=C/C(=O)Nc1cc2c(Nc3ccc(F)c(Cl)c3)ncnc2cc1O[C@H]1CCOC1 [AFATINIB] | – | – | – | – | – | – | – | – | – | – | – | – | – | 900 nM | –
6 | C=CC(=O)Nc1cccc(N2C3=NCCCCN3C(=O)c3cnc(Nc4ccc(N5CCN(C)CC5)cc4OC)nc32)c1 | – | – | – | – | – | – | – | 17 nM | 1540 nM | 3 | 648 nM | 20 | 0.88 nM | – | –
7 | C=CC(=O)Nc1cccc(Oc2nc(Nc3ccc(N4CCN(C)CC4)cc3)ncc2Cl)c1 | 30 - 100 | 24 nM | 5 nM | 5 | 29 nM | 2 nM | 30 - 100 | – | – | – | – | – | – | – | –
8 | C=CC(=O)Nc1cccc(Oc2nc(Nc3ccc(N4CCN(C)CC4)cc3OC)ncc2Cl)c1 | – | 113 nM | 8 nM | – | 47 nM | 3 nM | – | – | 1040 nM | – | 55 nM | – | – | – | 14 nM
9 | C=CC(=O)Nc1cccc(-n2c3nc(Nc4ccc(N5CCOCC5)cc4OC)ncc3c(=O)n3ccnc23)c1 | – | – | – | – | – | – | – | 950 nM | > 30000 nM | 63 | 476 nM | 156 | 6.1 nM | – | –
10 | C=CC(=O)Nc1cccc(-n2c3nc(Nc4ccc(N5CCN(C)CC5)cc4OC)ncc3c(=O)n3ccnc23)c1 | – | – | – | – | – | – | – | 140 nM | 2980 nM | 21 | 143 nM | 78 | 1.8 nM | – | –
